Reference: the NIST ThermoML archive (doi:10.1016/j.fluid.2014.04.038)
Where “and” joins values, the source holds several entries; their conditions need not be identical. Identical values can stand only once. ± gives the expanded uncertainty stated by the source.

Conditions: Hot wire method

CCF [fluoroethane]
Conditions	thermal conductivity [W/m/K]
327.04 K, 1095.3 kPa, Gas	0.01963 ± 0.0012
327.1 K, 807.3 kPa, Gas	0.01901 ± 0.0012
327.1 K, 968 kPa, Gas	0.01947 ± 0.0012
327.18 K, 798.3 kPa, Gas	0.01958 ± 0.0012
327.49 K, 616.5 kPa, Gas	0.01891 ± 0.0012
327.67 K, 420.8 kPa, Gas	0.01907 ± 0.0012
327.88 K, 999.2 kPa, Gas	0.01944 ± 0.0012
328.12 K, 807.3 kPa, Gas	0.01964 ± 0.0012
328.26 K, 616.5 kPa, Gas	0.0193 ± 0.0012
328.79 K, 420.8 kPa, Gas	0.01938 ± 0.0012
332.17 K, 969.9 kPa, Gas	0.02009 ± 0.0012
332.31 K, 756.8 kPa, Gas	0.01954 ± 0.0012
332.66 K, 396.8 kPa, Gas	0.01951 ± 0.0012
332.66 K, 969.9 kPa, Gas	0.02013 ± 0.0012
333.3 K, 756.8 kPa, Gas	0.01971 ± 0.0012
333.74 K, 396.8 kPa, Gas	0.01972 ± 0.0012
336.09 K, 1491 kPa, Gas	0.02082 ± 0.0013
336.27 K, 1198.3 kPa, Gas	0.02033 ± 0.0013
336.49 K, 1758.2 kPa, Gas	0.02175 ± 0.0013
336.67 K, 1491 kPa, Gas	0.02077 ± 0.0013
336.83 K, 865.8 kPa, Gas	0.01986 ± 0.0012
336.9 K, 1198.3 kPa, Gas	0.02068 ± 0.0013
336.91 K, 706.3 kPa, Gas	0.01983 ± 0.0012
337.06 K, 1758.2 kPa, Gas	0.02164 ± 0.0013
337.27 K, 1491 kPa, Gas	0.0208 ± 0.0013
337.33 K, 480.3 kPa, Gas	0.02 ± 0.0012
337.56 K, 1198.3 kPa, Gas	0.02055 ± 0.0013
337.61 K, 206.2 kPa, Gas	0.02003 ± 0.0012
337.81 K, 865.8 kPa, Gas	0.01999 ± 0.0012
337.89 K, 706.3 kPa, Gas	0.01991 ± 0.0012
338.08 K, 480.3 kPa, Gas	0.01991 ± 0.0012
338.76 K, 206.2 kPa, Gas	0.02026 ± 0.0013
345.5 K, 2260 kPa, Gas	0.0234 ± 0.0014
345.62 K, 2008 kPa, Gas	0.02287 ± 0.0014
345.73 K, 1253.4 kPa, Gas	0.02123 ± 0.0013
345.76 K, 1802.5 kPa, Gas	0.02255 ± 0.0014
345.91 K, 1001.2 kPa, Gas	0.0213 ± 0.0013
346.04 K, 748.6 kPa, Gas	0.02153 ± 0.0013
346.17 K, 2008 kPa, Gas	0.02305 ± 0.0014
346.18 K, 454.4 kPa, Gas	0.02091 ± 0.0013
346.2 K, 1802.5 kPa, Gas	0.02205 ± 0.0014
346.23 K, 2260 kPa, Gas	0.02334 ± 0.0014
346.43 K, 1560.1 kPa, Gas	0.02199 ± 0.0014
346.52 K, 1253.4 kPa, Gas	0.02134 ± 0.0013
346.59 K, 250.1 kPa, Gas	0.02108 ± 0.0013
346.68 K, 1001.2 kPa, Gas	0.02108 ± 0.0013
346.83 K, 454.4 kPa, Gas	0.02085 ± 0.0013
346.87 K, 2260 kPa, Gas	0.02339 ± 0.0014
346.91 K, 748.6 kPa, Gas	0.02154 ± 0.0013
347.13 K, 2008 kPa, Gas	0.02317 ± 0.0014
347.22 K, 1802.5 kPa, Gas	0.02234 ± 0.0014
347.3 K, 250.1 kPa, Gas	0.02135 ± 0.0013
347.67 K, 1560.1 kPa, Gas	0.02199 ± 0.0014
347.86 K, 1253.4 kPa, Gas	0.02137 ± 0.0013
348.08 K, 1001.2 kPa, Gas	0.02122 ± 0.0013
348.34 K, 748.6 kPa, Gas	0.02136 ± 0.0013
348.4 K, 250.1 kPa, Gas	0.0215 ± 0.0013
348.67 K, 454.4 kPa, Gas	0.02127 ± 0.0013
355.01 K, 2934.5 kPa, Gas	0.02654 ± 0.0016
355.38 K, 2586.5 kPa, Gas	0.02498 ± 0.0015
355.41 K, 2277.9 kPa, Gas	0.02422 ± 0.0015
355.59 K, 2007.1 kPa, Gas	0.02432 ± 0.0015
355.72 K, 1531.1 kPa, Gas	0.02295 ± 0.0014
355.79 K, 2586.5 kPa, Gas	0.02513 ± 0.0015
355.91 K, 2277.9 kPa, Gas	0.02436 ± 0.0015
355.95 K, 2934.5 kPa, Gas	0.0265 ± 0.0016
355.99 K, 1034.8 kPa, Gas	0.02302 ± 0.0014
356.06 K, 2007.1 kPa, Gas	0.02406 ± 0.0015
356.17 K, 611.2 kPa, Gas	0.02275 ± 0.0014
356.26 K, 2586.5 kPa, Gas	0.02498 ± 0.0015
356.27 K, 1531.1 kPa, Gas	0.02331 ± 0.0014
356.32 K, 266.7 kPa, Gas	0.02267 ± 0.0014
356.52 K, 2277.9 kPa, Gas	0.02412 ± 0.0015
356.55 K, 1034.8 kPa, Gas	0.0229 ± 0.0014
356.73 K, 2007.1 kPa, Gas	0.02363 ± 0.0014
356.82 K, 611.2 kPa, Gas	0.02305 ± 0.0014
357.02 K, 266.7 kPa, Gas	0.02276 ± 0.0014
357.06 K, 1531.1 kPa, Gas	0.02299 ± 0.0014
357.39 K, 1034.8 kPa, Gas	0.02287 ± 0.0014
357.69 K, 611.2 kPa, Gas	0.02264 ± 0.0014
357.98 K, 266.7 kPa, Gas	0.02298 ± 0.0014
364.77 K, 3438 kPa, Gas	0.02941 ± 0.0018
364.87 K, 3960.3 kPa, Gas	0.03259 ± 0.002
365.05 K, 2942.4 kPa, Gas	0.02781 ± 0.0017
365.11 K, 3438 kPa, Gas	0.02942 ± 0.0018
365.43 K, 2942.4 kPa, Gas	0.02721 ± 0.0017
365.62 K, 2506.8 kPa, Gas	0.0257 ± 0.0016
365.62 K, 3718.5 kPa, Gas	0.03133 ± 0.0019
365.65 K, 3438 kPa, Gas	0.02965 ± 0.0018
365.98 K, 2942.4 kPa, Gas	0.027 ± 0.0017
365.99 K, 2001.8 kPa, Gas	0.02478 ± 0.0015
366.21 K, 2506.8 kPa, Gas	0.02572 ± 0.0016
366.21 K, 3718.5 kPa, Gas	0.03142 ± 0.0019
366.29 K, 533.7 kPa, Gas	0.02342 ± 0.0014
366.42 K, 1515.5 kPa, Gas	0.02467 ± 0.0015
366.63 K, 1029 kPa, Gas	0.0243 ± 0.0015
366.67 K, 2001.8 kPa, Gas	0.02473 ± 0.0015
366.76 K, 2506.8 kPa, Gas	0.02558 ± 0.0016
367.1 K, 1515.5 kPa, Gas	0.02393 ± 0.0015
367.32 K, 2001.8 kPa, Gas	0.02511 ± 0.0015
367.38 K, 533.7 kPa, Gas	0.0242 ± 0.0015
367.49 K, 1029 kPa, Gas	0.02463 ± 0.0015
368.3 K, 533.7 kPa, Gas	0.02352 ± 0.0014
368.41 K, 1515.5 kPa, Gas	0.02402 ± 0.0015
368.9 K, 1029 kPa, Gas	0.02415 ± 0.0015
373.83 K, 4470.3 kPa, Gas	0.03726 ± 0.0023
373.99 K, 4470.3 kPa, Gas	0.03714 ± 0.0023
374.47 K, 4470.3 kPa, Gas	0.03687 ± 0.0023
374.48 K, 2938.6 kPa, Gas	0.02793 ± 0.0017
374.62 K, 2478.9 kPa, Gas	0.02638 ± 0.0016
374.67 K, 3543.9 kPa, Gas	0.03045 ± 0.0019
374.7 K, 2119.8 kPa, Gas	0.02585 ± 0.0016
374.85 K, 1564.8 kPa, Gas	0.02515 ± 0.0015
375.05 K, 2938.6 kPa, Gas	0.02813 ± 0.0017
375.25 K, 2119.8 kPa, Gas	0.02574 ± 0.0016
375.37 K, 364.6 kPa, Gas	0.02485 ± 0.0015
375.68 K, 1564.8 kPa, Gas	0.0258 ± 0.0016
375.8 K, 2478.9 kPa, Gas	0.02745 ± 0.0017
375.94 K, 2119.8 kPa, Gas	0.02613 ± 0.0016
376.1 K, 887.8 kPa, Gas	0.02494 ± 0.0015
376.18 K, 1564.8 kPa, Gas	0.02555 ± 0.0016
376.41 K, 364.6 kPa, Gas	0.02448 ± 0.0015
376.83 K, 887.8 kPa, Gas	0.02525 ± 0.0015
377.08 K, 364.6 kPa, Gas	0.02454 ± 0.0015
377.36 K, 5247.3 kPa, Fluid (supercritical or subcritical phases)	0.07905 ± 0.0048
377.63 K, 5247.3 kPa, Fluid (supercritical or subcritical phases)	0.08228 ± 0.005
377.73 K, 5247.3 kPa, Fluid (supercritical or subcritical phases)	0.08638 ± 0.0053
380.51 K, 5230.1 kPa, Fluid (supercritical or subcritical phases)	0.05046 ± 0.0032

Liquid
Conditions	thermal conductivity
334.87 K	0.09073 ± 0.0037 W/m/K and 0.09116 ± 0.0037 W/m/K and 0.09121 ± 0.0037 W/m/K
335.25 K	0.09091 ± 0.0037 W/m/K and 0.09082 ± 0.0037 W/m/K
335.26 K	0.09123 ± 0.0037 W/m/K
335.66 K	0.09055 ± 0.0036 W/m/K and 0.09054 ± 0.0036 W/m/K
335.67 K	0.09089 ± 0.0037 W/m/K
344.8 K	0.08543 ± 0.0034 W/m/K
344.82 K	0.08529 ± 0.0034 W/m/K and 0.08532 ± 0.0034 W/m/K
345.2 K	0.08496 ± 0.0034 W/m/K
345.21 K	0.08506 ± 0.0034 W/m/K and 0.08519 ± 0.0034 W/m/K
345.68 K	0.08484 ± 0.0034 W/m/K
345.7 K	0.08488 ± 0.0034 W/m/K
345.72 K	0.08489 ± 0.0034 W/m/K
354.61 K	0.081 ± 0.0033 W/m/K
354.62 K	0.08121 ± 0.0033 W/m/K and 0.08127 ± 0.0033 W/m/K
354.87 K	0.08113 ± 0.0033 W/m/K
354.88 K	0.08093 ± 0.0033 W/m/K and 0.08129 ± 0.0033 W/m/K
354.89 K	0.08101 ± 0.0033 W/m/K
354.97 K	0.08115 ± 0.0033 W/m/K
354.99 K	0.08085 ± 0.0033 W/m/K
355 K	0.08097 ± 0.0033 W/m/K
355.29 K	0.0807 ± 0.0032 W/m/K and 0.08094 ± 0.0033 W/m/K
355.3 K	0.08092 ± 0.0033 W/m/K
355.37 K	0.08104 ± 0.0033 W/m/K
355.38 K	0.08142 ± 0.0033 W/m/K and 0.08125 ± 0.0033 W/m/K
355.7 K	0.08043 ± 0.0032 W/m/K and 0.08031 ± 0.0032 W/m/K
355.71 K	0.08044 ± 0.0032 W/m/K
364.69 K	0.07657 ± 0.0031 W/m/K
364.71 K	0.07768 ± 0.0031 W/m/K
364.75 K	0.07676 ± 0.0031 W/m/K
365.06 K	0.07678 ± 0.0031 W/m/K
365.08 K	0.07679 ± 0.0031 W/m/K and 0.07656 ± 0.0031 W/m/K
365.47 K	0.07603 ± 0.0031 W/m/K
365.52 K	0.07616 ± 0.0031 W/m/K
365.53 K	0.07615 ± 0.0031 W/m/K
374.47 K	0.07323 ± 0.0029 W/m/K
374.48 K	0.07368 ± 0.003 W/m/K and 0.07356 ± 0.003 W/m/K
374.81 K	0.07343 ± 0.003 W/m/K and 0.07344 ± 0.003 W/m/K
374.82 K	0.07343 ± 0.003 W/m/K
375.2 K	0.07321 ± 0.0029 W/m/K
375.21 K	0.07381 ± 0.003 W/m/K and 0.07357 ± 0.003 W/m/K
